Read-outs that look alike come from different tables or passages of the source.
Key:
TbINO1 = biological target: T1, TbINO1 (Trypanosoma brucei brucei, UniProt Q5QQ46); test: biochemical; format: binding
T1 sequence (Q5QQ46 1-528): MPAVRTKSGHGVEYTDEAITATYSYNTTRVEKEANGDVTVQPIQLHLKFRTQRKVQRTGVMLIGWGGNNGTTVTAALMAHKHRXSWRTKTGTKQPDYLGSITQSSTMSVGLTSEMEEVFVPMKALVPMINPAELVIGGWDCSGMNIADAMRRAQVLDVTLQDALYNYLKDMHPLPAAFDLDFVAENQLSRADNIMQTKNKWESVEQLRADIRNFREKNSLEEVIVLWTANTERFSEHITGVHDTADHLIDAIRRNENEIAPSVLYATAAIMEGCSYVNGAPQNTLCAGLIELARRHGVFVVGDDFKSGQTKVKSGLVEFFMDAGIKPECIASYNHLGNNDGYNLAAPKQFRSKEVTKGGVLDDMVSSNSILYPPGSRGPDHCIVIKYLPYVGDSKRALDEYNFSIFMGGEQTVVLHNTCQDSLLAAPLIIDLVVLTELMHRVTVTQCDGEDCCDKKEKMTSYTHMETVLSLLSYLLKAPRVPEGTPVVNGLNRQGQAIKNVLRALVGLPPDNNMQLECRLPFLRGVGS

HeLa cells = test: cells; settings: for viability at 500 µM / CC50: Homo sapiens, HeLa; for viability at 500 µM: 65 h; for HeLa Cells Alamar Blue: Supplementary Table 1, compound 0.5 mM, percentage of controls, mean ± SD (n=3) or SE (n=2); for CC50: read-out: HeLa ED50
In short: (§1)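 Viability by Alamar Blue (5 h) after ~65 h drug treatment; seeding density 2 × 10^4 cells/well in DMEM supplemented with 10% FCS and 2 mM L-Glutamine.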

A549 cells = test: Cytotoxicity against A549 cells, Alamar Blue; format: cell-based; settings: Supplementary Table 1, compound 0.5 mM, percentage of controls (n=1); for viability at 500 µM: Homo sapiens, A549, 65 h
In short: as §1

[1] = read-out: Tb Ino1 Tm Shift [˚C]
[2] = read-out: HeLa Cells Alamar Blue
[3] = read-out: HeLa Cells Alamar Blue (% survival)
[4] = Supplementary Table 1, compound 1mM, mean ± SD from Boltzman curve fitting

Compound | ΔTm at 1000 µM (TbINO1; [1]) | viability at 500 µM (HeLa cells; [2]) | viability at 500 µM (A549 cells) | other results
Cc1csc(C(N)=O)c1 [compound 134, 4‐methylthiophene‐2‐carboxamide] | 0.61 ± 0.07 °C | 83.1 ± 5.6% | 123% | 
Cc1nc(C(N)=S)c[nH]1 [compound 135, 2-methyl-1H-imidazole-4-carbothioamide] |  | 90.3 ± 10.9% | 102% | ΔTm at 1000 µM (TbINO1; read-out: TbIno1 Tm shift [°C]): 1.74 ± 0.09 °C; viability at 500 µM (HeLa cells; [3]): 90.3 ± 10.9%
NCc1ccccc1Cl [compound 136, 2‐chlorobenzylamine] | 0.02 ± 0.07 °C | 53.3 ± 12.2% | 90.4% | 
COC(=O)c1cccs1 [compound 138, methyl thiophene‐2‐carboxylate] | 0.31 ± 0.05 °C | 89.4 ± 9.3% | 121% | 
Cc1csc(C(=O)O)c1 [compound 139, 4‐methylthiophene‐2‐carboxylic acid] | 0.08 ± 0.07 °C | 70.9 ± 10.7% | 121% | 
Cc1cc(C(N)=S)no1 [compound 140, 5‐methylisoxazole‐3‐carbothioamide] | 0.2 ± 0.07 °C | 89.2 ± 6.5% | 110% | 
CC(C)(N)CN1CCCC1 [compound 142, 2‐methyl‐1‐(1‐pyrrolidinyl)‐2‐propanamine] |  |  |  | Tb Ino1 Tm Shift [˚C] (TbINO1; [4]): 0.13 ± 0.07 °C; HeLa Cells Alamar Blue (HeLa cells): 89.9 ± 8.9 percentage of controls; A549 Cells Alamar Blue (A549 cells): 96.3 percentage of controls
OCc1ccccc1Cl [compound 143, (2‐chlorophenyl)methanol] | 0.46 ± 0.05 °C | 93.3 ± 6.6% | 109% | 
CNc1ccc(F)cc1F [compound 144, N1‐methyl‐2,4‐difluoroaniline] | 1.09 ± 0.06 °C | 79.3 ± 10.3% | 110% | 
Cc1ncsc1C(=O)O [compound 145, 4‐Methyl‐thiazole‐5‐carboxylic acid] | 0.01 ± 0.07 °C | 90.6 ± 16.1% | 114% | 
Cc1nc(C(=O)O)cs1 [compound 146, 2‐methyl‐1,3‐thiazole‐4‐carboxylic acid] | 0.1 ± 0.08 °C | 87 ± 6.4% | 109% | 
Cc1nc(C)c(CO)s1 [compound 147, (2,4‐dimethyl‐1,3‐thiazol‐5‐yl)methanol] | 0.14 ± 0.08 °C | 93.6 ± 4.3% | 118% | 
NC(=S)c1ccsc1 [compound 148, thiophene‐3‐carbothioamide] | 0.78 ± 0.08 °C | 92.3 ± 7% | 99.6% | 
c1cncc(-n2cccc2)c1 [compound 151, 3‐(1H‐pyrrol‐1‐yl)pyridine] | 0.43 ± 0.06 °C | 90.3 ± 6% | 90.1% | 
Nc1cc2ccccc2cn1 [compound 153, isoquinolin‐3‐amine] | 0.27 ± 0.06 °C | 88.5 ± 16.5% | 118% | 
CC(=O)c1ccc(C#N)cc1 [compound 155, 4‐acetylbenzonitrile] |  | 87.3 ± 16.6% | 131% | ΔTm at 1000 µM (TbINO1; Supplementary Table 1, compound 1mM, mean ± SD from Boltzman curve fitting, read-out: Tb Ino1 Tm Shift [˚C]): 0.19 ± 0.06 °C
c1ccc(-c2cnco2)cc1 [compound 156, 5‐phenyl‐1,3‐oxazole] | 0.95 ± 0.06 °C | 77.5 ± 18.3% | 104% | 
CC1Cc2ccccc2C1=O (stereo not shown) [compound 157, 2‐methylindan‐1‐one] | 0.14 ± 0.07 °C | 94.7 ± 3.5% | 126% | 
NC(=S)N1CCOCC1 [compound 159, morpholine‐4‐carbothioamide] | 0.21 ± 0.05 °C | 93.8 ± 9.3% | 109% | 
Oc1ccc(F)c(Cl)c1 [compound 160, 3‐chloro‐4‐fluorophenol] | 0.02 ± 0.05 °C | 94.9 ± 15.3% | 77.4% | 
OCc1c[nH]c2ccccc12 [compound 162, 1H-indol-3-ylmethanol] |  | 16.3 ± 10.6% | 41.6% | ΔTm at 1000 µM (TbINO1; read-out: TbIno1 Tm shift [°C]): 2.31 ± 0.06 °C; viability at 500 µM (HeLa cells; [3]): 16.3 ± 10.6%; CC50 (HeLa cells): 103 ± 6 µM
OCc1cccc2[nH]ccc12 [compound 163, 1H-indol-4-ylmethanol] |  | 103 ± 8.7% | 47% | ΔTm at 1000 µM (TbINO1; read-out: TbIno1 Tm shift [°C]): 1.9 ± 0.06 °C; viability at 500 µM (HeLa cells; [3]): 103 ± 8.7%; CC50 (HeLa cells): 2500 ± 200 µM

Compound | ΔTm at 1000 µM (TbINO1; [1]) | viability at 500 µM (HeLa cells; [2]) | viability at 500 µM (A549 cells) | other results
Cc1cc(O)cc(C)c1C#N [compound 164, 4‐hydroxy‐2,6‐dimethylbenzonitrile] | 0.26 ± 0.08 °C | 55.8 ± 12.1% | 90% | 
Cc1cccc2c1NCCC2 [compound 166, 8‐methyl‐1,2,3,4‐tetrahydroquinoline] | 0.06 ± 0.07 °C | 95.5 ± 1.6% | 76% | 
OCc1ccc2occc2c1 [compound 168, 1‐benzofuran‐5‐ylmethanol] | 0.39 ± 0.08 °C | 120 ± 11.4% | 75.1% | 
OCc1nc2ccccc2[nH]1 [compound 169, 1H‐benzimidazol‐2‐ylmethanol] | 0.04 ± 0.07 °C | 121 ± 15% | 81.7% | 
OCc1ccc2[nH]cnc2c1 [compound 170, 1H‐benzimidazol‐5‐ylmethanol] | 0.15 ± 0.07 °C | 98.3 ± 4.2% | 92% | 
OCc1ccc2nccn2c1 [compound 171, imidazo[1,2‐a]pyridin‐6‐ylmethanol] | 0.84 ± 0.09 °C | 94.1 ± 15.6% | 99.4% | 
OCc1cn2ccccc2n1 [compound 172, imidazo[1,2‐a]pyridin‐2‐ylmethanol] | 0.44 ± 0.08 °C | 86.6 ± 15.1% | 97.5% | 
CCc1cccc(C(C)=O)c1 [compound 174, 1‐(3‐ethylphenyl)ethan‐1‐one] | 0.8 ± 0.05 °C | 100 ± 7.3% | 79.2% | 
Nc1ccc2c(c1)C(=O)OC2 [compound 175, 6‐amino‐1,3‐dihydroisobenzofuran‐1‐one] | 0.04 ± 0.08 °C | 106 ± 17% | 79.5% | 
Cc1cccc(C(N)=O)c1C [compound 176, 2,3‐dimethylbenzamide] | 0.06 ± 0.07 °C | 88.2 ± 12.4% | 68.7% | 
CCc1ccc(CNC)cc1 [compound 180, N‐(4‐ethylbenzyl)‐N‐methylamine] | 0.14 ± 0.08 °C | 99.8 ± 1.1% | 87% | 
Cn1ccc(C(F)(F)F)n1 [compound 181, 1‐methyl‐3‐(trifluoromethyl)‐1H‐pyrazole] | 0.11 ± 0.08 °C | 115 ± 9.9% | 58.4% | 
O=C1COc2cc(O)ccc21 [compound 182, 6‐hydroxy‐2,3‐dihydrobenzo[b]furan‐3‐one] |  |  |  | Tb Ino1 Tm Shift [˚C] (TbINO1; [4]): 0.92 ± 0.09 °C; HeLa Cells Alamar Blue (HeLa cells): 119.6 ± 2.4 percentage of controls; A549 Cells Alamar Blue (A549 cells): 65.6 percentage of controls
COC(=O)c1ccccc1C [compound 183, methyl 2‐methylbenzoate] | 0.14 ± 0.08 °C | 114 ± 4.3% | 51% | 
CC(=O)c1cc(C)ccc1O [compound 184, 1‐(2‐hydroxy‐5‐methylphenyl)ethan‐1‐one] |  |  |  | Tb Ino1 Tm Shift [˚C] (TbINO1; [4]): 0.14 ± 0 °C; HeLa Cells Alamar Blue (HeLa cells): 91.7 ± 11.6 percentage of controls; A549 Cells Alamar Blue (A549 cells): 53.1 percentage of controls
COC(=O)c1cccc(C)c1 [compound 185, methyl 3‐methylbenzoate] | 0.14 ± 0.09 °C | 106 ± 10.4% | 61.3% | 
OCc1cccc2c1OCC2 [compound 186, 2,3-Dihydrobenzo[b]furan-7-methanol] |  | 86.5 ± 14.8% | 41.8% | ΔTm at 1000 µM (TbINO1; read-out: TbIno1 Tm shift [°C]): 4.09 ± 0.09 °C; viability at 500 µM (HeLa cells; [3]): 86.5 ± 14.8%
CC(=O)NCc1cccnc1 [compound 188, N1‐(3‐pyridylmethyl)acetamide] | 0.05 ± 0.07 °C | 104 ± 7.3% | 69.5% | 
N#CCCNCc1ccco1 [compound 189, 3‐[(2‐furylmethyl)amino]propanenitrile] | 0.75 ± 0.08 °C | 92.5 ± 7.2% | 84.4% | 
Cc1ccc(C(N)=O)c(N)c1 [compound 190, 2-amino-4-methylbenzamide] |  | 46.7 ± 23.7% | 106% | ΔTm at 1000 µM (TbINO1; read-out: TbIno1 Tm shift [°C]): 1.52 ± 0.06 °C; viability at 500 µM (HeLa cells; [3]): 46.7 ± 23.7%
Nc1ccc2ncsc2c1 [compound 191, 1,3‐benzothiazol‐6‐amine] | 0.44 ± 0.11 °C | 76.3 ± 15.1% | 38% | 
Nc1ccc2c(c1)OCCO2 [compound 193, 2,3‐dihydro‐1,4‐benzodioxin‐6‐amine] | 0.4 ± 0.09 °C | 79.9 ± 13.6% | 44.7% | 

Source: article PMC3199943, “Screening the MayBridge Rule of 3 Fragment Library for Compounds That Interact with the Trypanosoma brucei myo-Inositol-3-Phosphate Synthase and/or Show Trypanocidal Activity” (Molecular Biology International, 2011)
